PMC12723477, “Evaluating the Antifungal Potential of Autophagy-Related Protein 4 (ATG4) Inhibitors against Human Fungal Pathogens” (Journal of Microbiology and Biotechnology, 2025)

How the values were obtained:
[1] = molecular target: T1, AnAtg4 (Aspergillus niger ATG4) (Aspergillus niger, UniProt A2QY50); experiment: in vitro cleavage of AnAtg8 sensor by purified AnAtg4 at […] compound (immunoblot); type: biochemical
T1 construct: 6xHis-AnAtg4
T1 sequence (A2QY50 1-404): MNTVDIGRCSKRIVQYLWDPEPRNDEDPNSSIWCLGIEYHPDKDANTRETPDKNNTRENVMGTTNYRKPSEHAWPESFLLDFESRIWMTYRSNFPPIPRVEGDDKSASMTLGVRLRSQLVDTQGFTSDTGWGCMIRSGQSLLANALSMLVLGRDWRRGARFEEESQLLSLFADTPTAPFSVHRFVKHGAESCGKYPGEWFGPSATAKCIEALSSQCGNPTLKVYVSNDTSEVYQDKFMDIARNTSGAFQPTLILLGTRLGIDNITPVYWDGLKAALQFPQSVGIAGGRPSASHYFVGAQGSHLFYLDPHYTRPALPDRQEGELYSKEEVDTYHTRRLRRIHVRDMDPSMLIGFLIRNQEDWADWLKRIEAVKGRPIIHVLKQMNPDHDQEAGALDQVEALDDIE

[2] = molecular target: T2, CnAtg4T (truncated Cryptococcus neoformans ATG4) (Cryptococcus neoformans, UniProt J9VN57); experiment: microscale thermophoresis with labelled purified CnAtg4T; also in vitro cleavage assay (IC50 […]) and BRET; type: binding
T2 construct: gene CNAG_02662; CnAtg4T, 6xHis, truncated version excluding the disordered N-terminus, retaining the catalytic triad Cys563/Asp782/His784

[3] = molecular target: T2, CnAtg4T (truncated Cryptococcus neoformans ATG4); experiment: in vitro cleavage of CnAtg8 sensor by purified CnAtg4T (immunoblot) and BRET; type: biochemical

T2 sequence (J9VN57 entry or part of it): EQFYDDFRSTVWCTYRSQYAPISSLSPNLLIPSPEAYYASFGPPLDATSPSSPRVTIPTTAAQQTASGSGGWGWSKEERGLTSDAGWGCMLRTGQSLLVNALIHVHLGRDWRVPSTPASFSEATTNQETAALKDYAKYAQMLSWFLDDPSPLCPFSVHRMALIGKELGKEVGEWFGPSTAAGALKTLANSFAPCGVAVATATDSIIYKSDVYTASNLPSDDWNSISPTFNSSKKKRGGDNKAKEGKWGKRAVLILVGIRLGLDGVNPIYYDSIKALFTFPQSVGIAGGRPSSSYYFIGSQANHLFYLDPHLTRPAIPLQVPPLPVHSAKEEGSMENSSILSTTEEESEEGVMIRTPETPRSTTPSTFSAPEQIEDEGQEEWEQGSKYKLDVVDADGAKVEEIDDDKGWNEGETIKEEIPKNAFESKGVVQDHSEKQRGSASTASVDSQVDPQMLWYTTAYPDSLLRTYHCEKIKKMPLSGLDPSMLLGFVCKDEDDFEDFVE

| SMILES | in vitro cleavage of AnAtg8 sensor by purified AnAtg4 at 10 μM compound (immunob) [1] | Kd [2] | IC50 [3] |
| --- | --- | --- | --- |
| O=c1c2ccccc2[se]n1-c1ccccc1 [EB, Ebselen] | the inhibitors exhibited comparable inhibitory effects on the ATG8 maturation catalyzed by AfAtg4 and AnAtg4 (Fig. 2D) | 0.7 ± 0.32 µM | – |
| O=C1c2ccccc2[Se](=O)N1c1ccccc1 (stereo not drawn) [EO, ebselen oxide] | the inhibitors exhibited comparable inhibitory effects on the ATG8 maturation catalyzed by AfAtg4 and AnAtg4 (Fig. 2D) | – | 4.8 µM |
| Cc1ccc(-n2sc3ccccc3c2=O)cc1 [PT, 2-(4-methylphenyl)-1,2-benzisothiazol-3(2H)-one] | the inhibitors exhibited comparable inhibitory effects on the ATG8 maturation catalyzed by AfAtg4 and AnAtg4 (Fig. 2D) | – | 8.44 µM |
